Laboratory results published in patent US8658661B2, “Oxadiazole inhibitors of leukotriene production” (Boehringer Ingelheim International GmbH, priority 2010, dated 2014).

What was measured:
[1] = target: T1, recombinant human FLAP protein (Homo sapiens, UniProt P20292); assay: FLAP binding assay (SPA, displacement of [125I]L-691,831); conditions: for IC50: membranes of sf9 cells expressing recombinant human FLAP, [125I]L-691,831 probe, read-out: FLAP binding IC50
T1 construct: made in house; host or cells: Sf9 insect cells (100,000×g membrane pellet used)
T1 sequence (P20292 1-161): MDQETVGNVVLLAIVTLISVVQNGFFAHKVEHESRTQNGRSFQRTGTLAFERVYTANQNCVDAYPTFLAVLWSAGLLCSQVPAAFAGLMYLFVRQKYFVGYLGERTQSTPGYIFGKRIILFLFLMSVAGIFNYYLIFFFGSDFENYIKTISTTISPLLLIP
In short: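 Membranes from sf9 cells expressing human FLAP in pH 7.5 Tris buffer (MgCl2, EDTA, PMSF). Non-specific binding defined with 10 μM cold L-691,831.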

[2] = system: synthesis of LTB4 in human whole blood; assay: Human whole blood assay (inhibition of LTB4 synthesis, calcimycin stimulated); type: cell-based; conditions: heparinized human whole blood, calcimycin 20 μM, plasma LTB4
In short: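 LTB4 in plasma was quantified by HTRF immunoassay. Before that, compound-treated heparinized whole blood (15 min, 37 °C) received 20 μM final calcimycin for a further 30 min at 37 °C, followed by centrifugation at 1500×g.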

SMILES | IC50 [1] | IC50 [2] | inhibition at 1 µM ([1]; at 1000 nM, read-out: FLAP binding % inh @ 1000 nM)
CN(C)C(=O)Cn1cc(-c2nc([C@](C)(c3ccc(-c4cnc5c(c4)OCCN5)cc3)C3CC3)no2)cn1 [Example 255, 2-[4-(3-{(S)-1-Cyclopropyl-1-[4-(3,4-dihydro-2H-pyrido[3,2-b][1,4]oxazin-7-yl)-phenyl]-ethyl}-[1,2,4]oxadiazol-5-yl)-pyrazol-1-yl]-N,N-dimethyl-acetamide] | 15 nM | 1800 nM | 
CC(C)C(C)(c1ccc(-c2cnc(N)nc2)cc1)c1noc(N2CCC(C(=O)O)CC2)n1 (centres unmarked) [Example 219, 1-(3-{1-[4-(2-Amino-pyrimidin-5-yl)-phenyl]-1,2-dimethyl-propyl}-[1,2,4]oxadiazol-5-yl)-piperidine-4-carboxylic acid] | 39 nM | > 5000 nM | 
CN(C)C(=O)Cn1cc(-c2nc(C(C)(c3ccc(-c4cnc(N)c(F)c4)cc3)C3CC3)no2)cn1 (centres unmarked) [Example 243, 2-[4-(3-{1-[4-(6-Amino-5-fluoro-pyridin-3-yl)-phenyl]-1-cyclopropyl-ethyl}-[1 ,2,4]oxadiazol-5-yl)-pyrazol-1-yl]-N,N-dimethyl-acetamide] | 12 nM | 170 nM | 
CC(C)C(C)(c1ccc(-c2cnc(N)nc2)cc1)c1noc(C(=O)N2CCOCC2)n1 (centres unmarked) [Example 90, (3-{2-[4-(2-aminopyrimidin-5-yl)phenyl]-3-methylbutan-2-yl}-1,2,4-oxadiazol-5-yl)(morpholin-4-yl)methanone] | 63 nM | 1500 nM | 
CC(C)(O)Cn1cc(-c2nc([C@@](C)(c3ccc(-c4ccc(N)nc4)cc3)C3CC3)no2)cn1 [Example 173, 1-[4-(3-{(R)-1-[4-(6-Amino-pyridin-3-yl)-phenyl]-1-cyclopropyl-ethyl}-[1,2,4]oxadiazol-5-yl)-pyrazol-1-yl]-2-methyl-propan-2-ol] | 2.4 nM | 31 nM | 
CC(C)C(C)(c1ccc(-c2cnc(N)nc2)cc1)c1noc(O)n1 (centres unmarked) [Example 88, 3-{1-[4-(2-Amino-pyrimidin-5-yl)-phenyl]-1,2-dimethyl-propyl}-[1,2,4]oxadiazol-5-ol] |  | > 5000 nM | 51%
CC(C)C(C)(c1ccc(-c2cnc(N)nc2)cc1)c1noc(-c2cnc(N3CCN(C)CC3)cn2)n1 (centres unmarked) [Example 163, 5-[4-(3-methyl-2-{5-[5-(4-methylpiperazin-1-yl)pyrazin-2-yl]-1,2,4-oxadiazol-3-yl}butan-2-yl)phenyl]pyrimidin-2-amine] | 0.74 nM | 30 nM | 
C[C@@](c1ccc(-c2cnc(N)nc2)cc1)(c1noc(-c2cn[nH]c2)n1)C1CC1 [Example 48, 5-(4-{(R)-1-cyclopropyl-1-[5-(1H-pyrazol-4-yl)-[1,2,4]oxadiazol-3-yl]-ethyl}-phenyl)-pyrimidin-2-ylamine] | 6.8 nM | 190 nM | 
CC(C)[C@](C)(c1ccc(-c2cnc(N)nc2)cc1)c1noc(-c2ccn[nH]2)n1 [Example 23, 5-(4-{(2R)-3-methyl-2-[5-(1H-pyrazol-5-yl)-1,2,4-oxadiazol-3-yl]butan-2-yl}phenyl)pyrimidin-2-amine] | 6.9 nM | 170 nM | 
CC(C)C(C)(c1ccc(-c2cnc(N)nc2)cc1)c1noc(N2CCN(C(C)(C)C)CC2)n1 (centres unmarked) [Example 261, 5-(4-{1-[5-(4-tert-Butyl-piperazin-1-yl)-[1,2,4]oxadiazol-3-yl]-1,2-dimethyl-propyl}-phenyl)-pyrimidin-2-ylamine] | 11 nM | 190 nM | 
CN(C)C(=O)Cn1cc(-c2nc([C@@](C)(c3ccc(-c4cnc(N)cn4)cc3)C3CC3)no2)cn1 [Example 176, 2-[4-(3-{(R)-1-[4-(5-Amino-pyrazin-2-yl)-phenyl]-1-cyclopropyl-ethyl}-[1,2,4]oxadiazol-5-yl)pyrazol-1-yl]-N,N-dimethyl-acetamide] | 1.2 nM | 73 nM | 
CC(C)C(C)(c1ccc(-c2cnc(N)nc2)cc1)c1noc(N2CCOCC2)n1 (centres unmarked) [Example 89, 5-(4-{3-methyl-2-[5-(morpholin-4-yl)-1,2,4-oxadiazol-3-yl]butan-2-yl}phenyl)pyrimidin-2-amine] | 13 nM | 270 nM | 
Cn1cc(-c2nc(C(C)(c3ccc(-c4cnc(N)nc4)cc3)C3CCC3)no2)cn1 (centres unmarked) [Example 33, 5-(4-{1-cyclobutyl-1-[5-(1-methyl-1H-pyrazol-4-yl)-1,2,4-oxadiazol-3-yl]ethyl}phenyl)pyrimidin-2-amine] | 6.6 nM | 210 nM | 
C[C@@](c1ccc(-c2cnc(N)nc2)cc1)(c1noc(-c2cnn(C3CC3)c2)n1)C1CC1 [Example 271, 5-(4-{(R)-1-Cyclopropyl-1-[5-(1-cyclopropyl-1H-pyrazol-4-yl)-[1,2,4]oxadiazol-3-yl]-ethyl}-phenyl)-pyrimidin-2-ylamine] | 4.9 nM | 51 nM | 
CNC1CCN(c2nc(C(C)(c3ccc(-c4cnc(N)nc4)cc3)C(C)C)no2)CC1 (centres unmarked) [Example 217, 5-(4-{1,2-Dimethyl-1-[5-(4-methylamino-piperidin-1-yl)-[1,2,4]oxadiazol-3-yl]-propyl}-phenyl)-pyrimidin-2-ylamine] | 90 nM | 1200 nM | 
CC(C)C(C)(c1ccc(-c2cnc(N)nc2)cc1)c1noc(-c2cncnc2)n1 (centres unmarked) [Example 129, 5-(4-{3-methyl-2-[5-(pyrimidin-5-yl)-1,2,4-oxadiazol-3-yl]butan-2-yl}phenyl)pyrimidin-2-amine] | 2 nM | 180 nM | 
Cn1cc(-c2nc([C@H](c3ccc(-c4cnc(N)nc4)cc3)C(C)(C)C)no2)cn1 [Example 66, 5-(4-{(1S)-2,2-dimethyl-1-[5-(1-methyl-1H-pyrazol-4-yl)-1,2,4-oxadiazol-3-yl]propyl}phenyl)pyrimidin-2-amine] | 11 nM | 330 nM | 
CC(C)C(C)(c1ccc(-c2cnc(N)nc2)cc1)c1noc(-c2ccn(C)n2)n1 (centres unmarked) [Example 14, 5-(4-{3-methyl-2-[5-(1-methyl-1H-pyrazol-3-yl)-1,2,4-oxadiazol-3-yl]butan-2-yl}phenyl)pyrimidin-2-amine] | 4.6 nM | 140 nM | 
CC(C)(O)CNc1cnc(-c2nc(C(C)(c3ccc(-c4cnc(N)nc4)cc3)C3CCC3)no2)cn1 (centres unmarked) [Example 35, 1-{[5-(3-{1-[4-(2-aminopyrimidin-5-yl)phenyl]-1-cyclobutylethyl}-1,2,4-oxadiazol-5-yl)pyrazin-2-yl]amino}-2-methylpropan-2-ol] | 3.2 nM | 360 nM | 
CN(C)C(=O)Cn1cc(-c2nc([C@@](C)(c3ccc(-c4cnc(N)c(C(F)(F)F)c4)cc3)C3CC3)no2)cn1 [Example 281, 2-[4-(3-{(R)-1-[4-(6-Amino-5-trifluoromethyl-pyridin-3-yl)-phenyl]-1-cyclopropyl-ethyl}-[1,2,4]oxadiazol-5-yl)-pyrazol-1-yl]-N,N-dimethyl-acetamide] | 5 nM | 160 nM | 
CC(C)(O)CNc1cnc(-c2nc([C@](C)(c3ccc(-c4cnc(N)nc4)cc3)C3CC3)no2)cn1 [Example 51, 1-{[5-(3-{(1S)-1-[4-(2-aminopyrimidin-5-yl)phenyl]-1-cyclopropylethyl}-1,2,4-oxadiazol-5-yl)pyrazin-2-yl]amino}-2-methylpropan-2-ol] | 3.9 nM | 140 nM | 
CC(C)(O)CNc1cnc(-c2nc([C@@](C)(c3ccc(-c4cnc(N)nc4)cc3)C3CC3)no2)cn1 [Example 50, 1-{[5-(3-{(1R)-1-[4-(2-aminopyrimidin-5-yl)phenyl]-1-cyclopropylethyl}-1,2,4-oxadiazol-5-yl)pyrazin-2-yl]amino}-2-methylpropan-2-ol] | 1.3 nM | 95 nM | 
COCCn1cc(-c2nc(C(C)(c3ccc(-c4cnc(N)nc4)cc3)C3CC3)no2)cn1 (centres unmarked) [Example 30, 5-[4-(1-cyclopropyl-1-{5-[1-(2-methoxyethyl)-1H-pyrazol-4-yl]-1,2,4-oxadiazol-3-yl}ethyl)phenyl]pyrimidin-2-amine] | 5 nM | 60 nM | 
Cc1nc(-c2ccc([C@](C)(c3noc(-c4cnn(C)c4)n3)C3CC3)cc2)cnc1N [Example 187, 5-(4-{(R)-1-Cyclopropyl-1-[5-(1-methyl-1H-pyrazol-4-yl)-[1,2,4]oxadiazol-3-yl]-ethyl}-phenyl)-3-methyl-pyrazin-2-ylamine] | 17 nM | 23 nM | 
CC(C)[C@@](C)(c1ccc(-c2cnc(N)nc2)cc1)c1noc(-c2ccn(C)n2)n1 [Example 17, 5-(4-{(2S)-3-methyl-2-[5-(1-methyl-1H-pyrazol-3-yl)-1,2,4-oxadiazol-3-yl]butan-2-yl}phenyl)pyrimidin-2-amine] | 24 nM | 510 nM | 
C[C@](c1ccc(-c2cnc(N)cn2)cc1)(c1noc(-c2cnc(N3CCNCC3)cn2)n1)C1CC1 [Example 214, 5-(4-{(S)-1-Cyclopropyl-1-[5-(3,4,5,6-tetrahydro-2H-[1,2′]bipyrazinyl-5′-yl)-[1,2,4]oxadiazol-3-yl]-ethyl}-phenyl)-pyrazin-2-ylamine] | 12 nM | 450 nM | 
CC(c1ccc(-c2cnc(N)nc2)cc1)(c1noc(N2CCC(S(C)(=O)=O)CC2)n1)C1CC1 (centres unmarked) [Example 259, 5-(4-{1-Cyclopropyl-1-[5-(4-methanesulfonyl-piperidin-1-yl)-[1,2,4]oxadiazol-3-yl]-ethyl}-phenyl)-pyrimidin-2-ylamine] | 16 nM | 270 nM | 
COCCNc1cnc(-c2nc(C(C)(c3ccc(-c4cnc(N)nc4)cc3)C(C)C)no2)cn1 (centres unmarked) [Example 162, 5-{4-[2-(5-{5-[(2-methoxyethyl)amino]pyrazin-2-yl}-1,2,4-oxadiazol-3-yl)-3-methylbutan-2-yl]phenyl}pyrimidin-2-amine] | 2.3 nM | 41 nM | 
